Measured values published in patent publication US12102086B2, “Antimicrobial peptide Spampcin56-86 from Scylla paramamosain and applications thereof” (XIAMEN UNIVERSITY, priority 2021, dated 2024).
Residues, ends and D or L forms follow the SMILES beside them.

Experiments:
[1] = test system: S. aureus QZ19132
[2] = test system: E. tarda; settings: Gram-negative
[3] = test system: A. baumannii QZ20143
[4] = test system: E. faecium; assay: MIC and MBC determination; format: cell-based, Enterococcus Faecium; settings: CGMC NO. 1.131, Gram-positive
[5] = test system: L. monocytogenes; assay: MIC and MBC determination; format: cell-based, Listeria Monocytogenes; settings: CGMC NO. 1.10753, Gram-positive
[6] = test system: A. baumannii; settings: CGMC NO. 1.6769, Gram-negative
[7] = test system: P. aeruginosa; settings: CGMC NO. 1.2421, Gram-negative
[8] = test system: S. aureus
[9] = test system: E. faecalis; assay: MIC and MBC determination; format: cell-based, Enterococcus Faecalis; settings: CGMC NO. 1.2135, Gram-positive
[10] = test system: P. fluorescens; assay: MIC and MBC determination; format: cell-based, Pseudomonas fluorescens; settings: CGMC NO. 1.3202, Gram-negative
[11] = test system: E. coli
[12] = test system: A. baumannii QZ20142; settings: A. baumannii QZ20142, drug-resistant clinical isolate
[13] = test system: S. epidermidis; settings: CGMC NO. 1.4260, Gram-positive
[14] = test system: A. hydrophila; settings: CGMC NO. 1.2017, Gram-negative
[15] = test system: F. solani; settings: CGMC NO. 3.5840, fungi
[16] = test system: F. oxysporum; settings: CGMC NO. 3.6785, fungi
[17] = test system: A. sobria; settings: Gram-negative

## CC(C)C[C@H](NC(=O)CNC(=O)[C@H](Cc1c[nH]cn1)NC(=O)[C@H](C)NC(=O)[C@H](C)NC(=O)[C@H](CCCNC(=N)N)NC(=O)[C@@H](N)CCCNC(=N)N)C(=O)N[C@@H](CC(C)C)C(=O)N1CCC[C@H]1C(=O)N[C@@H](CCCNC(=N)N)C(=O)N[C@@H](CC(C)C)C(=O)N[C@@H](CCCNC(=N)N)C(=O)N[C@@H](C)C(=O)N1CCC[C@H]1C(=O)N1CCC[C@H]1C(=O)N1CCC[C@H]1C(=O)N[C@@H](Cc1ccccc1)C(=O)N[C@@H](Cc1c[nH]cn1)C(=O)N[C@@H](CCCCN)C(=O)N[C@@H](CCCNC(=N)N)C(=O)N[C@@H](CS)C(=O)N[C@H](C(=O)N[C@@H](CS)C(=O)N[C@@H](CC(C)C)C(=O)N[C@@H](CS)C(=O)N[C@@H](CCCNC(=N)N)C(=O)N[C@H](C(=O)N[C@@H](C)C(=O)N1CCC[C@H]1C(=O)N1CCC[C@H]1C(=O)N1CCC[C@H]1C(=O)O)[C@@H](C)O)C(C)C [Spampcin56-86] (H-RRAAHGLLPRLRAPPPFHKRCVCLCRTAPPP-OH; N-terminus and C-terminus assumed)
[1]
  MBC: 12 to 24 µM
[2]
  MBC: 24 to 48 µM
  MIC: 3 to 6 µM
[3]
  MIC: 3 to 6 µM
[4]
  MBC: 1.5-3^ μM
  MIC: 0 to 1.5 µM
[5]
  MBC: 1.5-3^ μM
  MIC: 1.5-3^ μM
[6]
  MBC: 3 to 6 µM
  MIC: 3 to 6 µM
[7]
  MBC: 3 to 6 µM
  MIC: 1.5-3^ μM
[8]
  MBC: 3 to 6 µM
[9]
  MBC: 1.5-3^ μM
  MIC: 1.5-3^ μM
[10]
  MBC: 1.5-3^ μM
  MIC: 1.5-3^ μM
[11]
  MBC: 3 to 6 µM
  MIC: 3 to 6 µM
[12]
  MBC: 3 to 6 µM
  MIC: 3 to 6 µM
[13]
  MBC: 3 to 6 µM
  MIC: 3 to 6 µM
[14]
  MBC: 6 to 12 µM
  MIC: 6 to 12 µM
[15]
  MBC: 3 to 6 µM
  MIC: 1.5-3^ μM
[16]
  MBC: 3 to 6 µM
  MIC: 3 to 6 µM
[17]
  MBC: 3 to 6 µM
  MIC: 3 to 6 µM
